From patent publication US6358936B2, “Compounds for the treatment of cancer” (Ardenia Investments, Ltd., priority 1998, dated 2002)
Several values for one entry are separate records, joined by “and”; a condition that tells them apart may be missing. Equal values may be shown once. Entries after “also recorded” stand apart in the source; their conditions may differ. Read-outs that look alike come from different tables or passages of the source.

Key:
EAC cells = test: Antitumor effect of compound 1 and doxorubicin on EAC in C3H mice (Example 20); format: in vivo; conditions: for Ascites volume / Tumor cell quantity / EAC growth inhibition, % to control: days 2, 4, 6, day 9
Procedure: 20-22 g males of C3H mice were used. Control and experimental groups included 7 animals, which were inoculated 5×10^6 EAC cells i.p. in volume 0.2 ml at day 0. […] One group of mice was untreated control. Results of experiment were accounted on ninth day. Mice were killed by cervical dislocation. Ascitic fluids were removed, collected, their volumes were measured, and abdominal cavities were washed by saline solution 6-7 times. Thus obtained fluids were pooled. The number of viable tumor cells was counted by hemocytometer, using trypan blue exclusion test. The mean and the standard mean error was calculated for each group of mice. Comparison of tumor cell number in control and experimental groups was carried out using Student t-test. Influence of tested preparation on EAC growth inhibition was evaluated by: [formula]

EAC [1] = conditions: for EAC growth inhibition / number of tumour cells: days 2, 4, 6, day 9
[2] = test system: Ehrlich ascites carcinoma (EAC); test: Anti-tumour effect of DXR complexes on Ehrlich ascites carcinoma growth in ICR mice (i.v. days 2, 4, 6; tumour cells counted day 8); format: in vivo; conditions: DXR 3.5 mg/kg; C4 22.5 mg/kg or C5 12 mg/kg
Procedure: Random-bred albino mice of line ICR, male and female, from own rearing were used in the study. The room for animal housing was provided with filtered air at 15 changes per hour, a temperature of 19-21° C., relative humidity of 50-60% and regulated light day of 12 hours with change of light and darkness at 6 a.m. and 6 p.m. The mice were kept in transparent polycarbonate cages with a floor area of 600 cm^2 containing softwood sawdust bedding. […] The mice aged 2-2.5 months and having a weight of 19-22 g were randomly distributed in the control and test groups, standardised by mean weights. The control and test groups included 10 and 7 animals correspondingly. The mice of each group were identified by specific ear marks. The cages with animals of each group were identified by cage cards marked with the study date, group number, number and sex of the animals.
The strain of EAC was propagated in ICR mice by intraperitoneal inoculation of 0.2 ml native ascites fluid or 0.5 ml ascites fluid diluted by saline to 1:1 from one or two animals with intraperitoneally growing EAC on day 7. Ascites fluids contained more 98% of viable tumour cells according to trypan blue exclusion test. For the each study the suspension of EAC cells in sterile saline in concentration of 10^7 viable tumour cells/ml was prepared in aseptic conditions from ascites fluid of mouse bearing of EAC on day 7.
The mice of each control and experimental groups were inoculated by intraperitoneal injection of 2×10^6 EAC cells in volume of 0.2 ml at day 0. Intravenous injections for the study were carried out in lateral tail vein of mice once every other day, three times (day 2, 4 and 6) following inoculation of EAC cells. The mice of control group were injected by vehicle in volume of 2.5 ml/kg of body weight (50 μl to mouse of 20 g body weight) intravenously (negative control).
The mice were killed by cervical dislocation two days later after the final treatment with the test complexes on day 8. Ascites fluids were removed, collected, their volumes were recorded, and abdominal cavities were washed by saline 6-7 times and both fluids were pooled. After centrifugation at 1000 r.p.m. for 10 min volumes of tumour cell pellet were also recorded. Number of viable tumour cells was counted by hemocetometer. Means and standard errors for each groups were calculated. Comparison of tumour cell number in control and test groups was carried out using Student's t-test. The influence of tested preparations on EAC growth inhibition was evaluated by the following formula: [formula]

EAC [3] = test: Effect of compound 1 with AFP on growth of EAC in C3H mice (Example 21); format: in vivo; conditions: compound 1 1 mg/kg (20 μg/mouse) i.v. ×3, AFP none
Procedure: The influence of compound with different amount of AFP on the growth of EAC was studied. The experiments were carried out on inbred C3H mice having initial weight of 20-23 g. The used tumor cell strain was supported by i.p. passages to mice of the same line. At the beginning of the research (day 0) four groups, each of which contained 7 mice, were formed. All of the animals were inoculated by tumour cells in saline solution i.p. (5·10^6 cells in 0,2 ml per a mouse).
The first group of animals was untreated (negative control). The mice were injected by NMS. […] The animals of third and fourth groups were injected the same dose of compound 1, the protein being added to NMS (2,5 and 5 μg/mouse, accordingly). On the ninth day after inoculation by EAC cells the mice were killed and ascitic fluids were collected and estimated quantitatively. Tumor cells suspensions were prepared and aliquotes were mixed with equal volume of 0,1% trypan blue solution. The quantity of tumor cells were counted with hemocytometer.
Results of the experiments were evaluated by means of variation statistics method using Student t-test. The values of inhibiting effects of the preparations were represented as percentage in comparison with control.

[4] = dose 20 μg/mouse i.v. (doxorubicin equivalent, 1 mg/kg)
[5] = dose 20 μg/mouse i.v. (doxorubicin equivalent, 1 mg/kg), 1 mg/kg
[6] = dose 50 μg/mouse i.v. (doxorubicin equivalent, 2.5 mg/kg)
[7] = dose 100 μg/mouse i.v. (doxorubicin equivalent, 5 mg/kg)
[8] = doxorubicin dose 1 mg/kg i.v. in NMS
[9] = doxorubicin dose 2.5 mg/kg i.v. in NMS
[10] = doses corresponding to 1 and 2.5 mg/kg of doxorubicin

| Structure (SMILES) | Ascites volume (EAC cells; [4]) [mL] | Tumor cell quantity (EAC cells; [4]) | EAC growth inhibition, % to control (EAC cells; [5]) [%] | Ascites volume (EAC cells; [6]) [mL] | Tumor cell quantity (EAC cells; [6]) | Ascites volume (EAC cells; [7]) [mL] | Tumor cell quantity (EAC cells; [7]) | EAC growth inhibition (EAC [1]; [8]) [%] | number of tumour cells (EAC [1]; [8]) | number of tumour cells (EAC [1]; [9]) | influence of the compound on the anti-tumour action of DXR in the DXR/compound complex [2] | also measured |
| --- | --- | --- | --- | --- | --- | --- | --- | --- | --- | --- | --- | --- |
| COc1cccc2c1C(=O)c1c(O)c3c(c(O)c1C2=O)C[C@@](O)(C(=O)CO)C[C@@H]3O[C@H]1C[C@H](N)[C@H](O)[C@H](C)O1 [DXR, doxorubicin, reference compound] | 2.85 ± 1.35 | 765.8 ± 127.52 × 10^6 | 36.9 | 1.85 ± 1.10 | 662.1 ± 99.17 × 10^6 | 0.80 ± 0.60 | 350.0 ± 108.21 × 10^6 | 34.8 | 635.9±122.78 ×10^6 | 537.4±92.89 ×10^6 |  | EAC growth inhibition, % to control (EAC cells; [7]): 71.2% |
| COc1cccc2c1C(=O)c1c(O)c3c(c(O)c1C2=O)C[C@@](O)(C(=O)CO)C[C@@H]3O[C@H]1C[C@H](NC(=O)\C=C(C)/C=C/C=C(C)/C=C/C2=C(C)CCCC2(C)C)[C@H](O)[C@H](C)O1 (relative stereo) [Compound 2, N-(13-cis-retinoyl)-doxorubicin] |  |  |  |  |  |  |  | 45.3 | 533.5±94.23 ×10^6 | 405.7±120.62 ×10^6 |  | antitumor effect in respect to EAC (EAC [1]; [10]): exceeding the effect of doxorubicin alone; EAC growth inhibition (EAC [1]; [9]): 58.4% |
| CC/C=C\C/C=C\C/C=C\C/C=C\C/C=C\C/C=C\CCC(=O)N[C@H](C(=O)O)[C@@H](C)OP(=O)(O)O [C11, N-docosahexaenoyl-o-phospho-L-threonine] |  |  |  |  |  |  |  |  |  |  | canceled the anti-tumour action of DXR |  |
| CC1=C(/C=C/C(C)=C/C=C/C(C)=C/C(=O)N[C@@H](Cc2ccc(OP(=O)(O)O)cc2)C(=O)O)C(C)(C)CCC1 (stereo in doubt) [C4, N-(all-trans-retinoyl)-o-phospho-L-tyrosine] |  |  |  |  |  |  |  |  |  |  | cancelled the anti-tumour action of DXR |  |
| CCCCC/C=C\C/C=C\C/C=C\C/C=C\CCCC(=O)NCCOP(=O)(O)O [C5, N-arachidonoyl-o-phospho-2-aminoethanol] |  |  |  |  |  |  |  |  |  |  | canceled the anti-tumour action of DXR; also recorded: cancelled the anti-tumour action of DXR |  |
| COc1cccc2c1C(=O)c1c(O)c3c(c(O)c1C2=O)CC(O)(C(=O)CO)CC3OC1CC(NC(=O)/C=C(C)/C=C/C=C(C)/C=C/C2=C(C)CCCC2(C)C)C(O)C(C)O1 (stereo not drawn) [Compound 1, N-(all-trans-retinoyl)-doxorubicin] | 3.50 ± 1.30 | 640.0 ± 78.04 × 10^6 | 47.3 | 2.10 ± 1.70 | 535.0 ± 167.90 × 10^6 | 3.30 ± 1.20 | 571.4 ± 66.96 × 10^6 |  |  |  |  | Ascites volume (EAC [3]): 2.0 ± 0.25 mL; Tumor cell quantity (EAC [3]): 1185.7 ± 266.2 × 10^6; EAC growth inhibition, % to control (EAC [3]; 1 mg/kg): 45.0%; EAC growth inhibition, % to control (EAC [3]; listed as compound 1, 1 mg/kg): 45%; EAC growth inhibition, % to control (EAC cells; dose 20 μg/mouse i.v. (doxorubicin equivalent, 1 mg/kg), listed as compound 1, 1 mg/kg): 47%; EAC growth inhibition, % to control (EAC cells; dose 50 μg/mouse i.v. (doxorubicin equivalent, 2.5 mg/kg), 2.5 mg/kg): 55.9%; EAC growth inhibition, % to control (EAC cells; dose 50 μg/mouse i.v. (doxorubicin equivalent, 2.5 mg/kg), listed as compound 1, 2.5 mg/kg): 57% and 56%; EAC growth inhibition, % to control (EAC cells; dose 100 μg/mouse i.v. (doxorubicin equivalent, 5 mg/kg), 5 mg/kg): 52.9%; EAC growth inhibition, % to control (EAC cells; dose 100 μg/mouse i.v. (doxorubicin equivalent, 5 mg/kg), listed as compound 1, 5 mg/kg): 53%; anti-tumour effect towards EAC (EAC cells; [10]): exerts high anti-tumour effect towards EAC |
